In ChEMBL document CHEMBL1156029, “The discovery of thienopyridine analogues as potent IkappaB kinase beta inhibitors. Part II” (Bioorg Med Chem Lett, 2009):
Activity calls are given as the source filed them. The rule behind the calls is not given here.

Experiments:
[1] = Inhibition of PHOS Kinase at 10 uM
[2] = target: Tyrosine-protein kinase Lyn (Homo sapiens, UniProt P07948); test: Inhibition of Lyn
[3] = target: MAP kinase-activated protein kinase 2 (Homo sapiens) (UniProt P49137); test: Inhibition of MAPKAP-K2 at 10 uM
MAP kinase-activated protein kinase 2 (Homo sapiens), sequence (P49137 whole entry, looked up): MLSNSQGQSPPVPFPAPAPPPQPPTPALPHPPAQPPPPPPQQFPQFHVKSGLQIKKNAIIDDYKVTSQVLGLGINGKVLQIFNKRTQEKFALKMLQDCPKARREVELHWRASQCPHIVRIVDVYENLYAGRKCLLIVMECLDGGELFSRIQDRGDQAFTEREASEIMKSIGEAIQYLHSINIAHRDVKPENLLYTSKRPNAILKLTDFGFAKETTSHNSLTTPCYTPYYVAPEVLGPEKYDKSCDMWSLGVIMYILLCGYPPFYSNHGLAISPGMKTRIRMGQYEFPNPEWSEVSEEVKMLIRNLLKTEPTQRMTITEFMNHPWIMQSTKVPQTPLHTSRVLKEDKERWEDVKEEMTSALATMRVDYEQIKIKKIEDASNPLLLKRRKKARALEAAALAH

[4] = target: Epidermal growth factor receptor (Homo sapiens, UniProt P00533)
[5] = target: T1, Mitogen-activated protein kinase 13 (Homo sapiens) (UniProt O15264); test: Inhibition of p38delta at 10 uM
T1 sequence (whole entry): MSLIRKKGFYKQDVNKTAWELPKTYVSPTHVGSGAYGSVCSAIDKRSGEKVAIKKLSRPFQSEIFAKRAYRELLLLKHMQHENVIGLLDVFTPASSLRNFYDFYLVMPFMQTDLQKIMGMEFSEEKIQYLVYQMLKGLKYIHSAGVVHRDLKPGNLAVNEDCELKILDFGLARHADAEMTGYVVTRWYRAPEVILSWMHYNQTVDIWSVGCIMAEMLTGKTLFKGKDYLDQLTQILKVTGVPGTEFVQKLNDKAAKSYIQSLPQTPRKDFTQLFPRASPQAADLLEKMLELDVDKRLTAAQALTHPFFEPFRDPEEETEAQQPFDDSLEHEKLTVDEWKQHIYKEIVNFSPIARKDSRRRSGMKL

[6] = target: Ribosomal protein S6 kinase alpha-1 (Homo sapiens) (UniProt Q15418); test: Inhibition of MAPKAPK-1a at 10 uM
Ribosomal protein S6 kinase alpha-1 (Homo sapiens), sequence (Q15418 whole entry): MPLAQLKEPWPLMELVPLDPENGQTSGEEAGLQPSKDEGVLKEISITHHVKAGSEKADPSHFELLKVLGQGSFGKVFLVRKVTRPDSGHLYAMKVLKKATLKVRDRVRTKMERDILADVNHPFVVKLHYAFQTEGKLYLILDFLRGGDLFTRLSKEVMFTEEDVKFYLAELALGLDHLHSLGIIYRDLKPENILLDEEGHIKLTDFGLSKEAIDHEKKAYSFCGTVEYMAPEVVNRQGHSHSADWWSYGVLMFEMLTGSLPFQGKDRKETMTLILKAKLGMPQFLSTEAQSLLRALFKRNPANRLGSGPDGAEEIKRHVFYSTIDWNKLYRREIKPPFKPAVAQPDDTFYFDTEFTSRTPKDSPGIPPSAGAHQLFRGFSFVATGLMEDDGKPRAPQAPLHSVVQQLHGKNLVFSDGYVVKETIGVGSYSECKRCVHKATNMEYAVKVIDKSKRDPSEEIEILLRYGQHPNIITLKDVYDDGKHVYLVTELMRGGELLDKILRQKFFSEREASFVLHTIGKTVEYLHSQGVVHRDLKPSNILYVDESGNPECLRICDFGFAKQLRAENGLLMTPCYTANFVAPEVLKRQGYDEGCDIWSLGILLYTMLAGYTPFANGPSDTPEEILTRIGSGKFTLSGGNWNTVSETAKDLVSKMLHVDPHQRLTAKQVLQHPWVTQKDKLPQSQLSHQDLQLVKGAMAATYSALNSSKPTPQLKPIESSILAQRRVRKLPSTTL

Ephrin type-A receptor 2 = Ephrin type-A receptor 2 (Homo sapiens, UniProt P29317); test: Inhibition of Eck
[7] = target: Casein kinase I isoform alpha (Homo sapiens) (UniProt P48729); test: Inhibition of CK1 at 10 uM
Casein kinase I isoform alpha (Homo sapiens), sequence (P48729 2-337 limits assumed): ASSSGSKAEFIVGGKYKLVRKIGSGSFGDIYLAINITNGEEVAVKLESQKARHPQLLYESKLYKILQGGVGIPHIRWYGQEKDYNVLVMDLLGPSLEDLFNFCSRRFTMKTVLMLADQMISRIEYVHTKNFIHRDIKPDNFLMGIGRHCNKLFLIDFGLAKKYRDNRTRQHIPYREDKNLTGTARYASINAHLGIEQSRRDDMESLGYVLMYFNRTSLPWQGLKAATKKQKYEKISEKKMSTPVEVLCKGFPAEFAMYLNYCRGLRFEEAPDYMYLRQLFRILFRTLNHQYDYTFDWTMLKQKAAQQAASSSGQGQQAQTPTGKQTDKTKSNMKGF

[8] = target: Glycogen synthase kinase-3 beta (Homo sapiens) (UniProt P49841); test: Inhibition of GSK3-beta at 10 uM
Glycogen synthase kinase-3 beta (Homo sapiens), sequence (P49841 whole entry, looked up): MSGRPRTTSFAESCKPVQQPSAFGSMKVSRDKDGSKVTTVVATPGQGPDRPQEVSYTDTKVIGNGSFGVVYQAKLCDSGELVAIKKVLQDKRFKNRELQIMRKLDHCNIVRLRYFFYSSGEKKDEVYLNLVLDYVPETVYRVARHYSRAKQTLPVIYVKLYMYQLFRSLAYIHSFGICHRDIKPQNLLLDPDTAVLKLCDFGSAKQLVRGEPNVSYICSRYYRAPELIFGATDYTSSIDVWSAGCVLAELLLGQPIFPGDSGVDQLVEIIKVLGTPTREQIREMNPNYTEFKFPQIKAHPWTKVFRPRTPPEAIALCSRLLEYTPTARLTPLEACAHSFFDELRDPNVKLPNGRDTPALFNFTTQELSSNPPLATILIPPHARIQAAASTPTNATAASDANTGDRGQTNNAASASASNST

[9] = target: Dual specificity tyrosine-phosphorylation-regulated kinase 1A (Homo sapiens) (UniProt Q13627); test: Inhibition of DYRK1a at 10 uM
[10] = target: Ribosomal protein S6 kinase alpha-5 (Homo sapiens) (UniProt O75582); test: Inhibition of MSK1 at 10 uM
Ribosomal protein S6 kinase alpha-5 (Homo sapiens), sequence (O75582 whole entry, looked up): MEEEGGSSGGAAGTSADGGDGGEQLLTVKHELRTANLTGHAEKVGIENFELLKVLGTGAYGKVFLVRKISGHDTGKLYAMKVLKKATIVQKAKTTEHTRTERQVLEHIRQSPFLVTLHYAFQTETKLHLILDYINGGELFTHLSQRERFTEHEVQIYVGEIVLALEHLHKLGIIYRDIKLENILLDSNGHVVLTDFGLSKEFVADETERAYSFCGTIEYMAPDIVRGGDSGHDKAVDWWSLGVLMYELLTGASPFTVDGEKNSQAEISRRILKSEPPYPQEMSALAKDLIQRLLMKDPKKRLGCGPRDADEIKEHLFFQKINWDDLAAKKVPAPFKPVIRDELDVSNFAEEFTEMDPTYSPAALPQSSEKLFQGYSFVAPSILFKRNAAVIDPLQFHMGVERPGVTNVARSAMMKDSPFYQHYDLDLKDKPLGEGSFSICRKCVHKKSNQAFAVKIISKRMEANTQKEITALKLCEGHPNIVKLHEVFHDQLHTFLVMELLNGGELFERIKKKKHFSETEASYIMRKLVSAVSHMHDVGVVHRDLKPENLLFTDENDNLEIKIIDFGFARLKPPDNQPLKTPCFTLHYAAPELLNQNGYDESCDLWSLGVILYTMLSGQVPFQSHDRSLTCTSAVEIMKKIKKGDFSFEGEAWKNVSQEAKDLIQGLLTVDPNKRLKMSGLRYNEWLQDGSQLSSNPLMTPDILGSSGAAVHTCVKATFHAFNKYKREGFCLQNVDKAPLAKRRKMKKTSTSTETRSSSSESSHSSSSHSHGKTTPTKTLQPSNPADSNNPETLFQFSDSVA

Mus musculus = test: Inhibition of LPS-induced TNFalpha production in mouse at 30 mg/kg, po administered 60 mins before LPS challenge; format: functional
[11] = Inhibition of PH domain deficient PKBdelta at 10 uM
[12] = target: Mitogen-activated protein kinase 1 (Homo sapiens) (UniProt P28482); test: Inhibition of MAPK2/ERK2 at 10 uM
Mitogen-activated protein kinase 1 (Homo sapiens), sequence (P28482 whole entry): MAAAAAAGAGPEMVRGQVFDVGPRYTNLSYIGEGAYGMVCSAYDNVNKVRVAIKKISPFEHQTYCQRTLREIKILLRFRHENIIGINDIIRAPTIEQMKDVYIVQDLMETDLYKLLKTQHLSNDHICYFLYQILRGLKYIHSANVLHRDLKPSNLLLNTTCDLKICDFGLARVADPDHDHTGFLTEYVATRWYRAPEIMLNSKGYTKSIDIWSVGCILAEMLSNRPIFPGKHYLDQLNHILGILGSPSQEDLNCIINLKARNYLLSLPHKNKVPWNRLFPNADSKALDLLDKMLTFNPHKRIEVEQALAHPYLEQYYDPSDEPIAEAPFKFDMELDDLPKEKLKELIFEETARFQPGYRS

[13] = target: Platelet-derived growth factor receptor alpha (Homo sapiens, UniProt P16234); test: Inhibition of PDGFRalpha
Platelet-derived growth factor receptor alpha, sequence (P16234 whole entry): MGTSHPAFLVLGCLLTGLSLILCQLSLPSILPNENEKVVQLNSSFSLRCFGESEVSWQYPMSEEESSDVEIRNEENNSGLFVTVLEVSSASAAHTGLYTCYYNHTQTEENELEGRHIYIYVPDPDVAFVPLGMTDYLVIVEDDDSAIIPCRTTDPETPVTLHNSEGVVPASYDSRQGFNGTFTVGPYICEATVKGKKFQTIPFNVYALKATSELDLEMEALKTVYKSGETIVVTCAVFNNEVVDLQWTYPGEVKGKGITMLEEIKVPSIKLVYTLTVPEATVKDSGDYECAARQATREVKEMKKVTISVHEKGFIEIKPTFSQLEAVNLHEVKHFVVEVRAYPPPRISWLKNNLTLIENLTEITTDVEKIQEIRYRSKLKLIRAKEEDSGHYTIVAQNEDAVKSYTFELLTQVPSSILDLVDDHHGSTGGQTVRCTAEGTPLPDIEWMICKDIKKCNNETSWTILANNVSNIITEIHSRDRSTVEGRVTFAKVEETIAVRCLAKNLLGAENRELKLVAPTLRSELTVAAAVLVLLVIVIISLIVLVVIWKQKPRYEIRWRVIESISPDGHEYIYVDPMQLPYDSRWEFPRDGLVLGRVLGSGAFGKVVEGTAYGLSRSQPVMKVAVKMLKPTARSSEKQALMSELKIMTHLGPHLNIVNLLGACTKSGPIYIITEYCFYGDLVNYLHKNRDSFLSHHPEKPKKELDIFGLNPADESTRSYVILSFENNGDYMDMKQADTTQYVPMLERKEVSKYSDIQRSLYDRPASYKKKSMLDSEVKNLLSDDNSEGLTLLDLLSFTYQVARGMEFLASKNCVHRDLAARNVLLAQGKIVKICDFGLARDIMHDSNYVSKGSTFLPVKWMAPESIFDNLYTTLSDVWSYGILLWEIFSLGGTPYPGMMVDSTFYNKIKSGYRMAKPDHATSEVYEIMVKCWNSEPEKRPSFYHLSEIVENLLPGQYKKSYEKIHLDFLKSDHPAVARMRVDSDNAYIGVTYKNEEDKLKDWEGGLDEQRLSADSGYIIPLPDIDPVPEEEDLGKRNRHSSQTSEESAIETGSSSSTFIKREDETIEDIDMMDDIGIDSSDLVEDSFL

[14] = target: T2, Serine/threonine-protein kinase Sgk1 (Homo sapiens) (UniProt O00141); test: Inhibition of SGK at 10 uM
T2 sequence (whole entry): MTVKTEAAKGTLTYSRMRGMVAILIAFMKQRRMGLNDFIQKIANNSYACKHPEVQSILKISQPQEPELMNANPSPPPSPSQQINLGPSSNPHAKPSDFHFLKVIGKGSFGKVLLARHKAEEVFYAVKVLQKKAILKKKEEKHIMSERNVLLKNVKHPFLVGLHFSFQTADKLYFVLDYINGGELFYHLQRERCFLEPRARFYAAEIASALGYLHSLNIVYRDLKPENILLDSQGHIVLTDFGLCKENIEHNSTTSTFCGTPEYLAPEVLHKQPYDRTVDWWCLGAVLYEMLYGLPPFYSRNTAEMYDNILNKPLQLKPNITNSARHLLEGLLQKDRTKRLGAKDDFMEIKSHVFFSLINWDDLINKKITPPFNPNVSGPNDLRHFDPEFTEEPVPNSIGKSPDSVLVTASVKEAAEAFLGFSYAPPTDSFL

[15] = Inhibition of PKA at 10 uM
[16] = target: Mitogen-activated protein kinase 11 (Homo sapiens) (UniProt Q15759); test: Inhibition of p38beta2 at 10 uM
Mitogen-activated protein kinase 11 (Homo sapiens), sequence (Q15759 whole entry): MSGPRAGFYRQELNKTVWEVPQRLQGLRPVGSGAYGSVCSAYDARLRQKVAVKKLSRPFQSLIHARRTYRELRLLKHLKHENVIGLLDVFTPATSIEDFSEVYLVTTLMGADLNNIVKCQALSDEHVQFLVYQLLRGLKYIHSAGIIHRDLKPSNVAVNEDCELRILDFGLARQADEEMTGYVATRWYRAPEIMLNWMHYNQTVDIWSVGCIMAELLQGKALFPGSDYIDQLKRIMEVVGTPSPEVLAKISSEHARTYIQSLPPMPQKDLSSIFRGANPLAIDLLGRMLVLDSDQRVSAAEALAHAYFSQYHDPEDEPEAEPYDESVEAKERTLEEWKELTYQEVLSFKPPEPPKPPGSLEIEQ

Ephrin type-A receptor 3 = target: T3, Ephrin type-A receptor 3 (Homo sapiens, UniProt P29320); test: Inhibition of Hek
T3 sequence (P29320 whole entry): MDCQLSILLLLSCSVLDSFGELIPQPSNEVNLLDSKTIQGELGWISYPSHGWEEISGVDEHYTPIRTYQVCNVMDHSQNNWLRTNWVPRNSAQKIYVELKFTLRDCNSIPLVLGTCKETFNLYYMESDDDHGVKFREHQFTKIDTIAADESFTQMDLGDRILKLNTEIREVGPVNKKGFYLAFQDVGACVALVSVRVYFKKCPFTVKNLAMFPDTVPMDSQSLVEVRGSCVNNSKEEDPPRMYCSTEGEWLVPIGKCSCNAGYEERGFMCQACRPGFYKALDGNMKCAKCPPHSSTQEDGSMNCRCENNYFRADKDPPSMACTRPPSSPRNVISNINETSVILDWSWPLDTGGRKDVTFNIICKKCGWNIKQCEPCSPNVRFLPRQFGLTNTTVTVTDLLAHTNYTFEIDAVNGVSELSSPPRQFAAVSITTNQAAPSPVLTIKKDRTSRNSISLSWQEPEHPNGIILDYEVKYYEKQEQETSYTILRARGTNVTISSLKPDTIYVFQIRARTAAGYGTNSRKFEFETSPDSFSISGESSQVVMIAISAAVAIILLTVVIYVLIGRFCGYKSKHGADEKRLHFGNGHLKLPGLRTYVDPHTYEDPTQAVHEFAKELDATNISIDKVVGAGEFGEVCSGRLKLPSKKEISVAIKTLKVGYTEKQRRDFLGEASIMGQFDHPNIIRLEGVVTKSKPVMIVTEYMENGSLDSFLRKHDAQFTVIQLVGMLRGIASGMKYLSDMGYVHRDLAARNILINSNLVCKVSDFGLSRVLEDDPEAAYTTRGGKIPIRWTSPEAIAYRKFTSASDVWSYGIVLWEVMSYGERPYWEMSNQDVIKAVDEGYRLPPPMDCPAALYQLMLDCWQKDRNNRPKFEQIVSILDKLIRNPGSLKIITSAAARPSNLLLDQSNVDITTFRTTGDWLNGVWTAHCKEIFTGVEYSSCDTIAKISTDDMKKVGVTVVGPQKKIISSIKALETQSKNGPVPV

Tyrosine-protein kinase Lyn, sequence (P07948 whole entry): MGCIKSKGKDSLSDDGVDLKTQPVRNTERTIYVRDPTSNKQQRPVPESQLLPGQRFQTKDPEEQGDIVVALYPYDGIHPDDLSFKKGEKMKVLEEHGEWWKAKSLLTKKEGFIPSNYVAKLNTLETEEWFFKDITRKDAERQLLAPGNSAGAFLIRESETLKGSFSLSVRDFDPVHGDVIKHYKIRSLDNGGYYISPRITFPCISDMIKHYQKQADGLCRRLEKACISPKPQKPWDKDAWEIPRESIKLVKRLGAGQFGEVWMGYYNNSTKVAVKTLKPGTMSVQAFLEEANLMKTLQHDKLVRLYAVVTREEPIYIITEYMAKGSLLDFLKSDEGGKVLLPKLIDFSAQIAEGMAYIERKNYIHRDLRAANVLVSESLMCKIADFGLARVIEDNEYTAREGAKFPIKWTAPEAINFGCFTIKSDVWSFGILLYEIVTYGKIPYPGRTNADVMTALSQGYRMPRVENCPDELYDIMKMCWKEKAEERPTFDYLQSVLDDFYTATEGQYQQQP

SMILES | Activity [1] | IC50 [2] [µM] | Activity [3] | IC50 [4] [µM] | Activity [5] | Activity [6] | IC50 (Ephrin type-A receptor 2) [µM] | Activity [7] | Activity [8] | Activity [9] | Activity [10] | inhibition in vivo at 30 mg/kg (Mus musculus) [%] | Activity [11] | Activity [12] | IC50 [13] [µM] | Activity [14] | Activity [15] | Activity [16] | IC50 (Ephrin type-A receptor 3) [µM]
CCCc1cc(N2CCCC(O)C2)nc2sc(C(N)=O)c(N)c12 (stereo not drawn) | inactive | > 7 | inactive | > 7 | inactive | inactive | > 7 | inactive | inactive | inactive | inactive | 67 | inactive | inactive | > 7 | inactive | inactive | inactive | > 7
CCCc1cc(N2CCNCC2)nc2sc(C(N)=O)c(N)c12 | inactive | > 7 | inactive |  | inactive | inactive | > 7 | inactive | inactive | inactive | inactive | 35 | inactive | inactive | 0.3 | inactive | inactive | inactive | 8
CCCc1cc(N2CCC(O)CC2)nc2sc(C(N)=O)c(N)c12 | inactive | > 7 | inactive |  | inactive | inactive | > 7 | inactive | inactive | inactive | inactive | 94 | inactive | inactive | > 7 | inactive | inactive | inactive | 9
CCCc1cc(N2CCC(N)CC2)nc2sc(C(N)=O)c(N)c12 | inactive | > 7 | inactive |  | inactive | inactive | > 7 | inactive | inactive | inactive | inactive | 14 | inactive | inactive | > 7 | inactive | inactive | inactive | 7
